“And” between values parts separate entries of the source, which are not always exact repeats. Equal values may be shown once. Read-outs that look alike come from different tables or passages of the source.
Columns and labels:
[1] = Earlier single and multiple ascending dose plasma and urine pharmacokinetic studies in healthy volunteers and Fabry patients; conditions: human, in vivo
[2] = Multiple dose simulations (2-compartment model, WinNonlin) on the renal impairment subjects of Example 1; set-up: species or system human; conditions: ratio to AUCPPK
Description: This example provides computer simulations of dosing the renal impairment subjects of Example 1. The key assumption was exposure characterized in non-Fabry subjects with renal impairment is the same as in Fabry patients with renal impairment. The software program was WinNonlin version 5.2 or higher. […] Steady state was assumed by 7th dose. […] QOD (every other day or 48 hrs), Q3D (every 3rd day or 72 hrs), Q4D (every 4th day or 96 hrs), and Q7D (every 7th day/once a week or 168 hrs). A 2-compartment model was used to estimate volume of distribution (Vd) and elimination rate constants from single dose data. These estimates were inputted into each molecular dose simulation regimen.

[3] = FACETS (011) population PK from sparse blood sampling in Fabry patients; type: in vivo, human; conditions: for Comparison to FACETS PPK (migalastat concentration): Fabry patients of FACETS
Description: One or more of the dosing regimens described herein are particularly suitable for Fabry patients who have some degree of renal impairment. […] FACETS (011, NCT00925301) was a 24-month trial, including a 6-month double-blind, placebo-controlled period, in 67 enzyme replacement therapy (ERT)-naive patients. ATTRACT (012, NCT01218659) was an active-controlled, 18-month trial in 57 ERT-experienced patients with a 12-month open-label extension (OLE). Both the FACETS and ATTRACT studies included patients having an estimated glomerular filtration rate (eGFR) of ≥30 ml/min/1.73 m^2. Accordingly, both studies included Fabry patients with normal renal function as well as patients with mild and moderate renal impairment, but neither study included patients with severe renal impairment.
(§1) Thus, two Fabry patients with renal impairment were evaluated. One patient (P1) had moderate renal impairment, while the other patient (P2) had severe renal impairment. […] The comparison with the results from the FACETS study allows for comparison of PK in the Fabry population with mostly normal, but some mild and a few moderately impaired Fabry patients. None had severe renal impairment because these patients were excluded from the study.

[4] = Plasma migalastat concentration in two Fabry patients with renal impairment (P1, P2; Example 3); type: in vivo, human; conditions: for concentration at 0 h: human, plasma, Fabry patient P1 (moderate renal impairment), Pre-dose (0 h)
Protocol: (§2) Migalastat levels can be measured via methods known in the art. […] Microcentrifuge tubes containing 100 μl of the tissue homogenate or 50 μl of plasma may then be spiked with 500 ng/mL 13C d2-AT1001 HCl internal standard (manufactured by MDS Pharma Services). A 600 μl volume of 5 mM HCl in 95/5 MeOH:H2O can then be added and the tubes vortexed for 2 minutes, followed by centrifugation at 21000×g for 10 minutes at room temperature. The supernatants may then be collected into a clean, 96-well plate, diluted with 5 mM HCl in dH2O and applied to a 96-well solid phase extraction (SPE) plate (Waters Corp., Milford Mass.). […] The liquid chromatography can be conducted using an ACN:water:formate binary mobile phase system (mobile phase A: 5 mM ammonium formate, 0.5% formic acid in 95:5 ACN:water; mobile phase B: 5 mM ammonium formate, 0.5% formic acid in 5:47.5:47.5 ACN:MeOH:water) with a flow rate of 0.7 mL/minute on an Halo HILIC column (150×4.6 mm, 2.7 μm) (Advanced Materials Technology, Inc.). MS/MS analysis may be carried out under APCi positive ion mode. The same procedure may be followed for migalastat determination in plasma except without homogenization. […] A 12-point calibration curve and quality control samples may be prepared. […] To derive approximate molar concentrations, one gram of tissue may be estimated as one mL of volume.
as §1

[5] = Pharmacokinetics of migalastat HCl in a Fabry patient with severe renal impairment (P3, 2004-5029; Example 6); type: in vivo, human
Protocol: as §2
PK data was collected every three months.

[6] = Fabry patient P1, moderate renal impairment
[7] = Severe RI Fabry patient 2004-5029 (P3), CLcr 21, 5/17, Q4D regimen
[8] = human, plasma, Severe RI Fabry patient 2004-5029 (P3), CLcr 21, 5/17, Q4D regimen

- route of excretion [1]: primarily excreted unchanged in urine
- RacPPK ([2]; Geometric Mean of the 11 subjects): 4.96
- RacPPK ([2]; individual subjects, Moderate (≥30-≤35) group): 3.75 and 4.36 and 2.06
- Comparison to FACETS PPK (migalastat concentration) ([3]; 3 Hrs Post, (coefficient of variation)): 1180 (31.0%)
- Comparison to FACETS PPK (migalastat concentration) ([3]; 48 Hrs Post): 8.70
- Comparison to FACETS PPK (migalastat concentration) ([3]; 48 h): 8.70
- Comparison to FACETS PPK (migalastat concentration) ([3]; Pre-dose (0 h)): 8.70
- concentration at 48 h ([3]; human, plasma, 150 mg, FACETS population PK, 150 mg QOD, read-out: PPK Cmin): 8.7 ng/mL
- AUC(0-t) ([3]; human, plasma, 150 mg, 011 PPK (CLcr ≥30-≥90 mL/min), N 62, QOD regimen, read-out: AUC0-t, Geometric mean): 9030 ng·h/mL
- concentration at 48 h ([3]; human, plasma, 150 mg, 011 PPK (CLcr ≥30-≥90 mL/min), N 62, QOD regimen, read-out: C48 h, Mean): 7.54 ng/mL
- Cmax ([3]; human, plasma, 150 mg, 011 PPK (CLcr ≥30-≥90 mL/min), N 62, QOD regimen, read-out: Cmax, Geometric mean (CV %)): 1180 ng/mL
- half-life ([3]; human, plasma, 150 mg, 011 PPK (CLcr ≥30-≥90 mL/min), N 62, QOD regimen, read-out: t1/2, Mean (converted)): 20.6 h
- AUC ([3]; human, plasma, 150 mg, reference AUC of the 011 PK model, the same value printed on every subject line): 9520 ng·h/mL
- increase of C48h concentration over 6 months [4, 6]: 49%
- increase of Cmax over 6 months [4, 6]: 33%
- concentration at 0 h ([4]; Migalastat Conc 6 months later): 36.4 ng/mL
- concentration at 0 h ([4]; Migalastat Conc, first set): 19.9 ng/mL
- Plasma Migalastat Conc ([5]; Fabry patient P3, May ′17 (Q4D), 0 h): BLQ
- CL/F [5, 7]: 4.67 L/h
- Frel [5, 7]: 2.6
- concentration at 0 h ([5]; human, plasma, Plasma Migalastat Conc, Fabry patient P3, Aug ′15, 0 h): 36.4 ng/mL
- concentration at 3 h ([5]; human, plasma, Plasma Migalastat Conc, Fabry patient P3, Aug ′15, 3 h): 2160 ng/mL
- concentration at 24 h ([5]; human, plasma, Plasma Migalastat Conc, Fabry patient P3, Aug ′15, 24 h): 211 ng/mL
- concentration at 48 h ([5]; human, plasma, Plasma Migalastat Conc, Fabry patient P3, Aug ′15, 48 h): 62.4 ng/mL
- concentration at 48 h ([5]; human, plasma, Plasma Migalastat Conc, Fabry patient P3, Aug ′17 (Q4D), 48 h): 130 ng/mL
- concentration at 96 h ([5]; human, plasma, Plasma Migalastat Conc, Fabry patient P3, Aug ′17 (Q4D), 96 h): 61.3 ng/mL
- concentration at 0 h ([5]; human, plasma, Plasma Migalastat Conc, Fabry patient P3, Feb ′15, 0 h): 19.9 ng/mL
- concentration at 3 h ([5]; human, plasma, Plasma Migalastat Conc, Fabry patient P3, Feb ′15, 3 h): 1620 ng/mL
- concentration at 24 h ([5]; human, plasma, Plasma Migalastat Conc, Fabry patient P3, Feb ′15, 24 h): 168 ng/mL
- concentration at 48 h ([5]; human, plasma, Plasma Migalastat Conc, Fabry patient P3, Feb ′15, 48 h): 41.8 ng/mL
- concentration at 0 h ([5]; human, plasma, Plasma Migalastat Conc, Fabry patient P3, Mar ′11, 0 h): 38.1 ng/mL
- concentration at 3 h ([5]; human, plasma, Plasma Migalastat Conc, Fabry patient P3, Mar ′11, 3 h): 1560 ng/mL
- concentration at 4 h ([5]; human, plasma, Plasma Migalastat Conc, Fabry patient P3, Mar ′11, 4 h): 1570 ng/mL
- concentration at 8 h ([5]; human, plasma, Plasma Migalastat Conc, Fabry patient P3, Mar ′11, 8 h): 802 ng/mL
- concentration at 3 h ([5]; human, plasma, Plasma Migalastat Conc, Fabry patient P3, May ′17 (Q4D), 3 h): 2110 ng/mL
- concentration at 4 h ([5]; human, plasma, Plasma Migalastat Conc, Fabry patient P3, May ′17 (Q4D), 4 h): 1970 ng/mL
- concentration at 8 h ([5]; human, plasma, Plasma Migalastat Conc, Fabry patient P3, May ′17 (Q4D), 8 h): 1380 ng/mL
- concentration at 24 h ([5]; human, plasma, Plasma Migalastat Conc, Fabry patient P3, May ′17 (Q4D), 24 h): 358 ng/mL
- concentration at 48 h ([5]; human, plasma, Plasma Migalastat Conc, Fabry patient P3, May ′17 (Q4D), 48 h): 77.4 ng/mL
- concentration at 96 h ([5]; human, plasma, Plasma Migalastat Conc, Fabry patient P3, May ′17 (Q4D), 96 h): 18.4 ng/mL
- concentration at 48 h ([5]; human, plasma, Plasma Migalastat Conc, Fabry patient P3, Nov ′17 (Q4D), 48 h): 401 ng/mL
- concentration at 96 h ([5]; human, plasma, Plasma Migalastat Conc, Fabry patient P3, Nov ′17 (Q4D), 96 h): 86.2 ng/mL
- concentration at 48 h ([5]; human, plasma, Severe RI Fabry patient 2004-5029 (P3), CLcr 15, 11/17, Q4D regimen, read-out: C48 h): 401 ng/mL
- concentration at 96 h ([5]; human, plasma, Severe RI Fabry patient 2004-5029 (P3), CLcr 15, 11/17, Q4D regimen, read-out: C96 h): 86.2 ng/mL
- concentration at 48 h ([5]; human, plasma, Severe RI Fabry patient 2004-5029 (P3), CLcr 19, 8/17, Q4D regimen, read-out: C48 h): 130 ng/mL
- concentration at 96 h ([5]; human, plasma, Severe RI Fabry patient 2004-5029 (P3), CLcr 19, 8/17, Q4D regimen, read-out: C96 h): 61.3 ng/mL
- AUC(0-inf) [5, 8]: 32100 ng·h/mL
- AUC(0-t) [5, 8]: 31900 ng·h/mL
- Cmax [5, 8]: 2250 ng/mL
- half-life [5, 8]: 13.2 h
- tmax [5, 8]: 2 h
- concentration at 48 h ([5]; human, plasma, Severe RI Fabry patient 2004-5029 (P3), CLcr 21, 5/17, Q4D regimen, read-out: C48 h): 77.4 ng/mL
- concentration at 96 h ([5]; human, plasma, Severe RI Fabry patient 2004-5029 (P3), CLcr 21, 5/17, Q4D regimen, read-out: C96 h): 18.4 ng/mL
Structure (SMILES): OC[C@H]1NC[C@H](O)[C@@H](O)[C@H]1O [migalastat, (2R,3S,4R,55)-2-(hydroxymethyl) piperdine-3,4,5-triol]
- RacPPK ([2]; individual subjects, Severe (<30) group): 8.81 and 5.59 and 5.02 and 6.74 and 6.23 and 6.91 and 3.62 and 5.17

Reference: patent publication US20220313670A1, “Methods Of Treating Fabry Disease In Patients Having Renal Impairment” (Amicus Therapeutics, Inc., priority 2019, published 2022)
